Reference: the kinase profiling compilation of Christmann-Franck et al. (2016)

What was measured:
Assay in all cases: radiometric filter-binding kinase assay
[1] = test system: AKT1 (human), P31749 [S473D]
[2] = biological target: AURKA (human) (UniProt O14965)
[3] = biological target: BRSK1 (human) (UniProt Q8TDC3)
[4] = biological target: BRSK2 (human) (UniProt Q8IWQ3)
[5] = biological target: BTK (human) (UniProt Q06187)
[6] = biological target: CaMK1 (human) (UniProt Q14012)
[7] = biological target: DYRK2 (human) (UniProt Q92630)
[8] = biological target: DYRK3 (human) (UniProt O43781)
[9] = biological target: EPHA2 (human) (UniProt P29317)
[10] = biological target: EPHB1 (human) (UniProt P54762)
[11] = biological target: EPHB2 (human) (UniProt P29323)
[12] = biological target: EPHB4 (human) (UniProt P54760)
[13] = biological target: FLT1 (human) (UniProt P17948)
[14] = biological target: GCK (human) (UniProt Q12851)
[15] = biological target: HIPK1 (human) (UniProt Q86Z02)
[16] = biological target: HIPK2 (human) (UniProt Q9H2X6)
[17] = biological target: INSR (human) (UniProt P06213)
[18] = biological target: JAK2 JH1 JH2 (human) (UniProt O60674)
[19] = biological target: MAP2K1 (human) (UniProt Q02750)
[20] = biological target: MAP3K1 (human) (UniProt Q13233)
[21] = biological target: MAP3K11 (human) (UniProt Q16584)
[22] = biological target: MAP3K5 (human) (UniProt Q99683)
[23] = biological target: MAPK10 (human) (UniProt P53779)
[24] = biological target: MAPK11 (human) (UniProt Q15759)
[25] = biological target: MAPK8 (human) (UniProt P45983)
[26] = biological target: MAPK9 (human) (UniProt P45984)
[27] = biological target: MAPKAPK5 (human) (UniProt Q8IW41)
[28] = biological target: MARK3 (human) (UniProt P27448)
[29] = biological target: PIM1 (human) (UniProt P11309)
[30] = biological target: PRKCA (human) (UniProt P17252)
[31] = test system: RPS6KB1 (human), P23443 [T412E]
[32] = biological target: STK3 (human) (UniProt Q13188)
[33] = biological target: SYK (human) (UniProt P43405)
[34] = biological target: TAOK1 (human) (UniProt Q7L7X3)
[35] = biological target: TBK1 (human) (UniProt Q9UHD2)
[36] = biological target: YES1 (human) (UniProt P07947)
YES1 (human), sequence (P07947 whole entry, looked up): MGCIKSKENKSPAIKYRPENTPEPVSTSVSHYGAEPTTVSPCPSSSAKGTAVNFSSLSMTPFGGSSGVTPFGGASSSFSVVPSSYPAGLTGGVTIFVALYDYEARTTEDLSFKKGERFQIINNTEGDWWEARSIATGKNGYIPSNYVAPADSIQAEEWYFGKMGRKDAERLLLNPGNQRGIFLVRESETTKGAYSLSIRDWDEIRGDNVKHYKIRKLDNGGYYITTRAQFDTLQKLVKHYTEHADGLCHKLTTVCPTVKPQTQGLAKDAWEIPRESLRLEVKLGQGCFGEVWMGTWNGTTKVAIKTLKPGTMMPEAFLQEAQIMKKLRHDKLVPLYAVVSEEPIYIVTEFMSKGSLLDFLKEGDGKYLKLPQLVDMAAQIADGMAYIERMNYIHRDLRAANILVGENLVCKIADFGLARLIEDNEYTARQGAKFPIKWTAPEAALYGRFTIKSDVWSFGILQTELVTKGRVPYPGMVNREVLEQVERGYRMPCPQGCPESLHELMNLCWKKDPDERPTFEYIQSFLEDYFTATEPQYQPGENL

MAPKAPK5 (human), sequence (Q8IW41 whole entry, looked up): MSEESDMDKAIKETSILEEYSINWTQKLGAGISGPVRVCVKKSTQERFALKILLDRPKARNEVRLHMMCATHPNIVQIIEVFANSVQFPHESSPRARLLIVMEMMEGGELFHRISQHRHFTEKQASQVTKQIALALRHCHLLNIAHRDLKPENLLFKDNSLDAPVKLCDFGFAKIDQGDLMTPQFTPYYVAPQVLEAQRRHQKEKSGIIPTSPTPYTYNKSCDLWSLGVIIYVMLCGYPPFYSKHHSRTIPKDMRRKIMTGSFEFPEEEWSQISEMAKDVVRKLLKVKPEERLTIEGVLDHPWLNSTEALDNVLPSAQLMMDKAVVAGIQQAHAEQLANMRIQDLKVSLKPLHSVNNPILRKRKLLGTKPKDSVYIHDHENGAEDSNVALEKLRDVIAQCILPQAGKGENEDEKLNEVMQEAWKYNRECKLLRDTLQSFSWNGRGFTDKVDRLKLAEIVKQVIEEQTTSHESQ
BTK (human), sequence (Q06187 whole entry, looked up): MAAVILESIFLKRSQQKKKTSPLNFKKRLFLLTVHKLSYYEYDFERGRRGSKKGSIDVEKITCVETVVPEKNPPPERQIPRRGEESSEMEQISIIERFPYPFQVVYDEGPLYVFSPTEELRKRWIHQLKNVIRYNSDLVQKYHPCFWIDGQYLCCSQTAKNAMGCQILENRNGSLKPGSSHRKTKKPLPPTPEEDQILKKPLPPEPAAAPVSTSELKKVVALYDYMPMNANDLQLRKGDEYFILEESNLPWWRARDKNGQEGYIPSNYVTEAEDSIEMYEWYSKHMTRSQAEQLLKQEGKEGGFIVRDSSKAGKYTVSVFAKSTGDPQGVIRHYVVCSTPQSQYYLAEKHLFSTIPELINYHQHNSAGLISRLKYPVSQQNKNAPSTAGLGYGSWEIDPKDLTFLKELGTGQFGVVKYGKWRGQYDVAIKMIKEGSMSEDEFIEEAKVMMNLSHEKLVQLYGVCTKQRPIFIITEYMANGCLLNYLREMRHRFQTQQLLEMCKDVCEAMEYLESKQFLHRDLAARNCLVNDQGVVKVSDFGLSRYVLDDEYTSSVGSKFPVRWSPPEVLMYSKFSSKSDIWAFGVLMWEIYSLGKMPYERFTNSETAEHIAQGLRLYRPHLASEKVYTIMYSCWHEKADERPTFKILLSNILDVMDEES
MAP2K1 (human), sequence (Q02750 whole entry, looked up): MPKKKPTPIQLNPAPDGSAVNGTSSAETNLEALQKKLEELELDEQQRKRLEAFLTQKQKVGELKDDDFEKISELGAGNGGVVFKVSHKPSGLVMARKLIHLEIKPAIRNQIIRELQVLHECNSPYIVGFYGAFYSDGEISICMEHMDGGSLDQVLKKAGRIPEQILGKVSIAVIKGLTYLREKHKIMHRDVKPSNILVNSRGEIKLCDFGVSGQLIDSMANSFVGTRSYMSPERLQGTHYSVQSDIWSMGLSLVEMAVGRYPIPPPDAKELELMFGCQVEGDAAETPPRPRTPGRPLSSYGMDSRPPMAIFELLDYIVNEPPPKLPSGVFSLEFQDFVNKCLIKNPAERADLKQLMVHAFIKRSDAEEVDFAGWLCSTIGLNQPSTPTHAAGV
MAPK10 (human), sequence (P53779 whole entry, looked up): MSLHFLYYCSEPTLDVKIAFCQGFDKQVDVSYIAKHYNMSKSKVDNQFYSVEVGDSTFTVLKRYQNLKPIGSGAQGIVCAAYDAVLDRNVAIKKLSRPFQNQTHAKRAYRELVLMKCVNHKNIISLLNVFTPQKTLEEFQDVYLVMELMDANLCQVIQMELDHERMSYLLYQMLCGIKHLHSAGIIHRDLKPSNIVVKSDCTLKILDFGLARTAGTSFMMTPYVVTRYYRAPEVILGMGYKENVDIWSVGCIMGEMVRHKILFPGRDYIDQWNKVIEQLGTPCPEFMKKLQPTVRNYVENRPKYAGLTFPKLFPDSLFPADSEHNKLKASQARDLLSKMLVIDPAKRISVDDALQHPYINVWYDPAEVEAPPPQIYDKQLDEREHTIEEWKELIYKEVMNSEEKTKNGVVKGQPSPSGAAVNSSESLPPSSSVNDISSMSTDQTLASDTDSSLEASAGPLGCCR
AKT1 (human), P31749 [S473D], sequence (P31749 whole entry S473D, looked up): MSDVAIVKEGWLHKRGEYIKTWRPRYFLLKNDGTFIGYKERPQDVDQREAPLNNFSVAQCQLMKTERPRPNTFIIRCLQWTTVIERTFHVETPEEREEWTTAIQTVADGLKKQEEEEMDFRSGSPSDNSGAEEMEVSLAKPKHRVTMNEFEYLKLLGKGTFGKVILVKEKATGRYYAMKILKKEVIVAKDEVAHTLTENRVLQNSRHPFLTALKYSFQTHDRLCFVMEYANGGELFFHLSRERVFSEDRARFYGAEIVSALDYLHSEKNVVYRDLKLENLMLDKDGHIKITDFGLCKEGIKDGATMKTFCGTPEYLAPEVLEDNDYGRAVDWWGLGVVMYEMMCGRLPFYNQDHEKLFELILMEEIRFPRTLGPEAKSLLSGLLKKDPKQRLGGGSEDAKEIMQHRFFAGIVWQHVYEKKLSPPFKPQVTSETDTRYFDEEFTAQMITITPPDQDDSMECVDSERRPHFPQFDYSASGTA
MAPK9 (human), sequence (P45984 whole entry, looked up): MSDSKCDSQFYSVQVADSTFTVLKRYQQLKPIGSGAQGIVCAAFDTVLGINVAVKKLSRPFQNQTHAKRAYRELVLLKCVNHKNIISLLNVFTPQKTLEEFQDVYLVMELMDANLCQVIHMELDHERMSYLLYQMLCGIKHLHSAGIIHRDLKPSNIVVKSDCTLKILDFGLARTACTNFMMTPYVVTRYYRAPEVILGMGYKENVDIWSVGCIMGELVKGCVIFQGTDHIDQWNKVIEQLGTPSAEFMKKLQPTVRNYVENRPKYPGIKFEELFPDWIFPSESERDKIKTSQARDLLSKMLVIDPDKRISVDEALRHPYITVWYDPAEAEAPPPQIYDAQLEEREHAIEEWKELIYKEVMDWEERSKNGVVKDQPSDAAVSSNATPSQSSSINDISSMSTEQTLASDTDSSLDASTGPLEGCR
PIM1 (human), sequence (P11309 whole entry, looked up): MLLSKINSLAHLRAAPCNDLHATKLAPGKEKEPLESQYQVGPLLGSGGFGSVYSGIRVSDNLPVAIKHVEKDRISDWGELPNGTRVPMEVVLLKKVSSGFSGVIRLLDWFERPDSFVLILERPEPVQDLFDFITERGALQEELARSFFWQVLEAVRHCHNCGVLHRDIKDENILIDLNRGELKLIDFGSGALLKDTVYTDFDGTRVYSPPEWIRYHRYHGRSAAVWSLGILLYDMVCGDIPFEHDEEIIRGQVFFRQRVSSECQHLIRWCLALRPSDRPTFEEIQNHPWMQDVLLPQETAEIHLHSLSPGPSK
EPHA2 (human), sequence (P29317 whole entry, looked up): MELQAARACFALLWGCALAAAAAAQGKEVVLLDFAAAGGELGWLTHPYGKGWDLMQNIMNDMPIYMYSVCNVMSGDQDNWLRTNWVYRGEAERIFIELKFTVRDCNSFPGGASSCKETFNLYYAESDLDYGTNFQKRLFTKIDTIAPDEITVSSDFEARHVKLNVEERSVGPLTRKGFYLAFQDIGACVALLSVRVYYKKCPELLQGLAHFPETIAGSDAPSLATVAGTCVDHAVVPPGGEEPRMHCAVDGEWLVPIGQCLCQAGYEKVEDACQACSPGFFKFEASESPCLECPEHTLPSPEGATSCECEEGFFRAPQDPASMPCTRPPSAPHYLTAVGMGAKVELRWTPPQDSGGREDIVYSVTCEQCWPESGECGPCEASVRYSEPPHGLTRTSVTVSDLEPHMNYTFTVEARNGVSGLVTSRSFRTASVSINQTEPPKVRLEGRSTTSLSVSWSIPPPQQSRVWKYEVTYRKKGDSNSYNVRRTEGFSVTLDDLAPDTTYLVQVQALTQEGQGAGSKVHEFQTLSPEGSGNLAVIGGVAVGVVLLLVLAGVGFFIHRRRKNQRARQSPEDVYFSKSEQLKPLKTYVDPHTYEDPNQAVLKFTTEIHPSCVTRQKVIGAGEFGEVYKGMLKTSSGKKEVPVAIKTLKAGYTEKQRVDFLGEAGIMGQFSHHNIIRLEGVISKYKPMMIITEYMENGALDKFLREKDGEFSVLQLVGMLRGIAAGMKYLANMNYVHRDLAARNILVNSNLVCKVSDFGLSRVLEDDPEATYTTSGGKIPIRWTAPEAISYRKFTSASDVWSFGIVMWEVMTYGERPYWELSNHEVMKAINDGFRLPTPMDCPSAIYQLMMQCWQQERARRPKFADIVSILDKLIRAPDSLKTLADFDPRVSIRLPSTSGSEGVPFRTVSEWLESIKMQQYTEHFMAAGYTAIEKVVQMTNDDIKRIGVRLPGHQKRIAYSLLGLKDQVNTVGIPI

**Q.** For `CNC(=O)C1[C@H]2O[C@@](C)([C@@H]1N)n1c3ccccc3c3c4c(c5c6ccccc6n2c5c31)C(=O)NC4` (some centres not stated), which residual activity ([1]; compound 0.01 µM) is on record?
**A.** 93%

**Q.** And the residual activity ([1]; compound 0.1 µM)?
**A.** 44%

**Q.** What about the residual activity ([1]; compound 1.0 µM) of the same compound?
**A.** 5%

**Q.** What about the residual activity ([2]; compound 0.01 µM) of the same compound?
**A.** 28%

**Q.** What about the residual activity ([2]; compound 0.1 µM) of the same compound?
**A.** 4%

**Q.** What about the residual activity ([2]; compound 1.0 µM) of the same compound?
**A.** 5%

**Q.** And the residual activity ([3]; compound 0.01 µM)?
**A.** 61%

**Q.** And the residual activity ([3]; compound 0.1 µM)?
**A.** 3%

**Q.** And the residual activity ([3]; compound 1.0 µM)?
**A.** 1%

**Q.** And the residual activity ([4]; compound 0.01 µM)?
**A.** 16%

**Q.** And the residual activity ([4]; compound 0.1 µM)?
**A.** 10%

**Q.** What about the residual activity ([4]; compound 1.0 µM) of the same compound?
**A.** 8%

**Q.** What about the residual activity ([5]; compound 0.01 µM) of the same compound?
**A.** 49%

**Q.** And the residual activity ([5]; compound 0.1 µM)?
**A.** 11%

**Q.** What about the residual activity ([5]; compound 1.0 µM) of the same compound?
**A.** 9%

**Q.** And the residual activity ([6]; compound 0.01 µM)?
**A.** 97%

**Q.** What about the residual activity ([6]; compound 0.1 µM) of the same compound?
**A.** 25%

**Q.** And the residual activity ([6]; compound 1.0 µM)?
**A.** 4%

**Q.** What about the residual activity ([7]; compound 0.01 µM) of the same compound?
**A.** 41%

**Q.** What about the residual activity ([7]; compound 0.1 µM) of the same compound?
**A.** 9%

**Q.** What about the residual activity ([7]; compound 1.0 µM) of the same compound?
**A.** 4%

**Q.** And the residual activity ([8]; compound 0.01 µM)?
**A.** 24%

**Q.** What about the residual activity ([8]; compound 0.1 µM) of the same compound?
**A.** 4%

**Q.** What about the residual activity ([8]; compound 1.0 µM) of the same compound?
**A.** 2%

**Q.** And the residual activity ([9]; compound 0.01 µM)?
**A.** 92%

**Q.** And the residual activity ([9]; compound 0.1 µM)?
**A.** 53%

**Q.** What about the residual activity ([9]; compound 1.0 µM) of the same compound?
**A.** 19%

**Q.** What about the residual activity ([10]; compound 0.01 µM) of the same compound?
**A.** 41%

**Q.** And the residual activity ([10]; compound 0.1 µM)?
**A.** 56%

**Q.** And the residual activity ([10]; compound 1.0 µM)?
**A.** 25%

**Q.** What about the residual activity ([11]; compound 0.01 µM) of the same compound?
**A.** 108%

**Q.** What about the residual activity ([11]; compound 0.1 µM) of the same compound?
**A.** 89%

**Q.** What about the residual activity ([11]; compound 1.0 µM) of the same compound?
**A.** 34%

**Q.** What about the residual activity ([12]; compound 0.01 µM) of the same compound?
**A.** 102%

**Q.** And the residual activity ([12]; compound 0.1 µM)?
**A.** 60%

**Q.** And the residual activity ([12]; compound 1.0 µM)?
**A.** 8%

**Q.** What about the residual activity ([13]; compound 0.01 µM) of the same compound?
**A.** 17%

**Q.** What about the residual activity ([13]; compound 0.1 µM) of the same compound?
**A.** 13%

**Q.** And the residual activity ([13]; compound 1.0 µM)?
**A.** 4%

**Q.** And the residual activity ([14]; compound 0.01 µM)?
**A.** 6%

**Q.** What about the residual activity ([14]; compound 0.1 µM) of the same compound?
**A.** 4%

**Q.** What about the residual activity ([14]; compound 1.0 µM) of the same compound?
**A.** 2%

**Q.** What about the residual activity ([15]; compound 0.01 µM) of the same compound?
**A.** 98%

**Q.** And the residual activity ([15]; compound 0.1 µM)?
**A.** 82%

**Q.** What about the residual activity ([15]; compound 1.0 µM) of the same compound?
**A.** 22%

**Q.** What about the residual activity ([16]; compound 0.01 µM) of the same compound?
**A.** 85%

**Q.** And the residual activity ([16]; compound 0.1 µM)?
**A.** 30%

**Q.** What about the residual activity ([16]; compound 1.0 µM) of the same compound?
**A.** 6%

**Q.** And the residual activity ([17]; compound 0.01 µM)?
**A.** 120%

**Q.** What about the residual activity ([17]; compound 0.1 µM) of the same compound?
**A.** 76%

**Q.** And the residual activity ([17]; compound 1.0 µM)?
**A.** 11%

**Q.** And the residual activity ([18]; compound 0.01 µM)?
**A.** 10%

**Q.** And the residual activity ([18]; compound 0.1 µM)?
**A.** 12%

**Q.** And the residual activity ([18]; compound 1.0 µM)?
**A.** 7%

**Q.** What about the residual activity ([19]; compound 0.01 µM) of the same compound?
**A.** 9%

**Q.** And the residual activity ([19]; compound 0.1 µM)?
**A.** 0%

**Q.** What about the residual activity ([19]; compound 1.0 µM) of the same compound?
**A.** 0%

**Q.** What about the residual activity ([20]; compound 0.01 µM) of the same compound?
**A.** 97%

**Q.** And the residual activity ([20]; compound 0.1 µM)?
**A.** 78%

**Q.** What about the residual activity ([20]; compound 1.0 µM) of the same compound?
**A.** 23%

**Q.** What about the residual activity ([21]; compound 0.01 µM) of the same compound?
**A.** 17%

**Q.** What about the residual activity ([21]; compound 0.1 µM) of the same compound?
**A.** 5%

**Q.** What about the residual activity ([21]; compound 1.0 µM) of the same compound?
**A.** 3%

**Q.** What about the residual activity ([22]; compound 0.01 µM) of the same compound?
**A.** 113%

**Q.** What about the residual activity ([22]; compound 0.1 µM) of the same compound?
**A.** 15%

**Q.** What about the residual activity ([22]; compound 1.0 µM) of the same compound?
**A.** 2%

**Q.** And the residual activity ([23]; compound 0.01 µM)?
**A.** 65%

**Q.** And the residual activity ([23]; compound 0.1 µM)?
**A.** 30%

**Q.** What about the residual activity ([23]; compound 1.0 µM) of the same compound?
**A.** 26%

**Q.** And the residual activity ([24]; compound 0.01 µM)?
**A.** 108%

**Q.** And the residual activity ([24]; compound 0.1 µM)?
**A.** 96%

**Q.** What about the residual activity ([24]; compound 1.0 µM) of the same compound?
**A.** 79%

**Q.** And the residual activity ([25]; compound 0.01 µM)?
**A.** 91%

**Q.** What about the residual activity ([25]; compound 0.1 µM) of the same compound?
**A.** 4%

**Q.** What about the residual activity ([25]; compound 1.0 µM) of the same compound?
**A.** 1%

**Q.** What about the residual activity ([26]; compound 0.01 µM) of the same compound?
**A.** 101%

**Q.** And the residual activity ([26]; compound 0.1 µM)?
**A.** 98%

**Q.** And the residual activity ([26]; compound 1.0 µM)?
**A.** 4%

**Q.** What about the residual activity ([27]; compound 0.01 µM) of the same compound?
**A.** 81%

**Q.** What about the residual activity ([27]; compound 0.1 µM) of the same compound?
**A.** 15%

**Q.** What about the residual activity ([27]; compound 1.0 µM) of the same compound?
**A.** 2%

**Q.** What about the residual activity ([28]; compound 0.01 µM) of the same compound?
**A.** 7%

**Q.** And the residual activity ([28]; compound 0.1 µM)?
**A.** 3%

**Q.** And the residual activity ([28]; compound 1.0 µM)?
**A.** 2%

**Q.** And the residual activity ([29]; compound 0.01 µM)?
**A.** 71%

**Q.** And the residual activity ([29]; compound 0.1 µM)?
**A.** 16%

**Q.** What about the residual activity ([29]; compound 1.0 µM) of the same compound?
**A.** 1%

**Q.** And the residual activity ([30]; compound 0.01 µM)?
**A.** 79%

**Q.** And the residual activity ([30]; compound 0.1 µM)?
**A.** 44%

**Q.** What about the residual activity ([31]; compound 0.01 µM) of the same compound?
**A.** 37%

**Q.** And the residual activity ([31]; compound 0.1 µM)?
**A.** 6%

**Q.** And the residual activity ([31]; compound 1.0 µM)?
**A.** 3%

**Q.** And the residual activity ([32]; compound 0.01 µM)?
**A.** 18%

**Q.** What about the residual activity ([32]; compound 0.1 µM) of the same compound?
**A.** 16%

**Q.** What about the residual activity ([32]; compound 1.0 µM) of the same compound?
**A.** 9%

**Q.** And the residual activity ([33]; compound 0.01 µM)?
**A.** 21%

**Q.** What about the residual activity ([33]; compound 0.1 µM) of the same compound?
**A.** 6%

**Q.** What about the residual activity ([33]; compound 1.0 µM) of the same compound?
**A.** 2%

**Q.** What about the residual activity ([34]; compound 0.01 µM) of the same compound?
**A.** 53%

**Q.** And the residual activity ([34]; compound 0.1 µM)?
**A.** 15%

**Q.** And the residual activity ([34]; compound 1.0 µM)?
**A.** 7%

**Q.** What about the residual activity ([35]; compound 0.01 µM) of the same compound?
**A.** 22%

**Q.** What about the residual activity ([35]; compound 0.1 µM) of the same compound?
**A.** 16%

**Q.** And the residual activity ([35]; compound 1.0 µM)?
**A.** 12%

**Q.** What about the residual activity ([36]; compound 0.01 µM) of the same compound?
**A.** 76%

**Q.** And the residual activity ([36]; compound 0.1 µM)?
**A.** 20%

**Q.** What about the residual activity ([36]; compound 1.0 µM) of the same compound?
**A.** 2%
